Data: US11236120B2, “Azithromycin derivatives with epithelial barrier enhancement properties” (EpiEndo Pharmaceuticals ehf, priority 2015, dated 2022)
Values after ≈ are worked out from the molar mass of the structure shown.

What was measured:
[1] = Solubility in 10 mM phosphate buffer (pH 7.4); format: physicochemical; settings: pH 7.4, aqueous buffer, kinetic from dmso stock, 60 minutes at room temperature, filtered, read-out: MTS Solubility in Buffer (pH 7.4)
Method: Solubility in 10 mM Phosphate Buffer (pH 7.4)
The solubility sample testing of the compounds was performed by in phosphate buffer at pH 7.4 and using HPLC-MS detection. A stock solution of […] in DMSO was prepared for each compound. For the solubility test sample, 100 μL of the stock solution was diluted with 3.9 mL of a 10 mM phosphate buffer at […] to a final concentration of […]. The buffer solution was left to stand for 60 minutes at room temperature and then filtered. The filtrate was analyzed against two calibration points of the same analyte prepared at […] using HPLC-MS. These calibration points were prepared from the same stock solution as the solubility sample by diluting it with DMSO:H2O (1:1) 1:40 and then again 1:10. The chromatographic signal area of the analyte in the solubility sample was then compared to the chromatographic signal area of the two calibration samples.
(§1) The chromatographic separation was performed on a Waters HPLC-MS system using a 50×2.1 mm×Bridge C18 column and a gradient elution of Water with 0.1% formic acid and acetonitrile with 0.1% formic acid. The analytes were analyzed in positive electro-spray mode using the (M+H)^+ in single ion recording.

Escherichia coli (D-21) = assay: Assay 1: antimicrobial broth dilution on microtiter plates, Escherichia coli; format: cell-based; settings: E. coli (D-21)
Method: (§2) The antimicrobial activity of each Example compound was investigated. The Minimal Inhibitory Concentration (MIC—the minimal dose required to inhibit bacterial growth) and the Minimal Bactericidal Concentration (MBC—the minimal dose required to kill bacteria) were measured for each compound for Streptococcus pneumoniae (ATCC49619), Staphylococcus aureus (ATCC29213), Bacillus megaterium (BM-11) and Escherichia coli (D-21) using an antimicrobial broth dilution method on microtiter plates. The Minimal Inhibitory Concentration (MIC) was also measured for each example compound and azithromycin with Mycobacterium avium complex (MAC). Mycobacterium avium complex (MAC) is a term that covers both M. avium and M. intracellulare.
(§3) The antibacterial activities of example compounds 1 to 31 and azithromycin were investigated. The Minimal Inhibitory Concentration (MIC—the minimal dose required to inhibit bacterial growth) and the Minimal Bactericidal Concentration (MBC—the minimal dose required to kill bacteria) were measured for each compound for Streptococcus pneumoniae (ATCC49619), Staphylococcus aureus (ATCC29213), Bacillus megaterium (BM-11) and Escherichia coli (D-21) using an antimicrobial broth dilution method on 96 well microtiter plates.
A 256 μg/ml stock solution of each compound was prepared in Mueller-Hinton Broth and then further diluted by a 2-fold serial dilution. […]

[2] = Stability in human plasma; format: in vitro ADME; settings: room temperature
Method: Stability in Mouse and Human Plasma
The stability of the compounds in mouse and human plasma was performed using protein precipitation as sample clean-up and HPLC-MS detection. The plasma stability studies of the compounds was performed at room temperature for up to 4 hours. A stock solution of […] in DMSO was prepared for each compound. For the plasma stability samples, 100 μL of the stock solution was diluted with 3.9 mL of either mouse or human plasma to a final concentration of […]. The plasma was left to equilibrate for 10 minutes at room temperature before the first analysis. For each analyzed time point ([…]) a 100 μL aliquot of the plasma was removed and protein precipitation (PPT) was performed on the aliquot by adding 900 μL of (ACN:DMSO) 95:5. The precipitated sample was shaken for 60 seconds and then centrifuged. The supernatant was transferred to an HPLC vial and analyzed using HPLC-MS. The chromatographic signal area of the samples at the different time points were then compared against each other, by setting the initial analysis at t=0 min as 100% and then calculating the %-value for each subsequent time point.
as §1

[3] = tested on: Mycobacterium intracellulare; assay: Assay 2: STC colorimetric microplate assay, M. intracellulare; format: cell-based
[4] = tested on: epithelial cells in vitro ALI culture; settings: cited from earlier work
[5] = tested on: Bacillus megaterium (BM-11); assay: Assay 1: antimicrobial broth dilution on microtiter plates, Bacillus megaterium; format: cell-based; settings: Priestia megaterium
Method: as §2, with “Mycobacterium avium complex (MAC) is a term that covers both M. avium and M. intracellulare.” left out
as §3, with “The” for “The antibacterial activities of example compounds 1 to 31 and azithromycin were investigated. The”, “plates. […]” for “plates.”
After addition of the bacterial solution, the plates were incubated at 35° C. for 18 h. The bacterial growth of each well was then recorded and then the Minimal Inhibitory Concentration (MIC) and Minimal Bactericidal Concentration ([…]) were determined.

CC[C@H]1OC(=O)[C@H](C)[C@@H](O[C@H]2C[C@@](C)(OC)[C@@H](O)[C@H](C)O2)[C@H](C)[C@@H](O[C@@H]2O[C@H](C)C[C@H](N(C)C)[C@H]2O)[C@](C)(O)C[C@@H](C)CN(C)[C@H](C)[C@@H](O)[C@]1(C)O [Azithromycin, (2R,3S,4R,5R,8R,10R,11R,12S,13S,14R)-11-[(2S,3R,4S,6R)-4-(dimethylamino)-3-hydroxy-6-methyl-tetrahydropyran-2-yl]oxy-2-ethyl-3,4,10-trihydroxy-13-[(2R,4R,5S,6S)-5-hydroxy-4-methoxy-4,6-dimethyl-tetrahydropyran-2-yl]oxy-3,5,6,8,10,12,14-heptamethyl-1-oxa-6-azacyclopentadecan-15-one]
solubility at 60 min [1]: 0.26 µM (≈ 0.195 µg/mL)
MBC (Escherichia coli (D-21)): 32 µg/mL (≈ 42.7 µM)
MIC (Escherichia coli (D-21)): 4 µg/mL (≈ 5.34 µM)
Degradation in Human Plasma at RT [2]: 6 % per hour
MIC ([3]; Mycobacterium intracellulare S1005200118): 32 µg/mL (≈ 42.7 µM)
MIC ([3]; Mycobacterium intracellulare S1305150028): 4 µg/mL (≈ 5.34 µM)
effect on transepithelial resistance (TER) and cellular processing of tight junctions [4]: increasing transepithelial resistance
MBC [5]: 2 µg/mL (≈ 2.67 µM)
MIC [5]: 1 µg/mL (≈ 1.34 µM)
